Experimental data reported in patent publication US20240246954A1, “COMPOSITIONS AND METHODS FOR INHIBITING KRAS” (TheRas, Inc., priority 2021, published 2024).

Tests used:
[1] = test system: pERK in GP2d cells (KRAS G12D); test: Cell-based pERK HTRF assay; conditions: GP2d, 1 h, 60 min incubation
In short: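 GP2d cells (DMEM, 10% FBS) treated 60 min with compounds in a 9-point half-log series from 1 μM top concentration, 0.25% DMSO. Lysates read for pERK by HTRF (d2/Eu cryptate antibodies) after 4–24 h at room temperature; emission at 615 nm.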

[2] = target: T1, Avi-KRAS G12D (1-169) GppNHp/RAF1 RBD-3×FLAG (52-151) (Homo sapiens, UniProt P01116, G12D); test: HTRF Raf1-KRAS G12D-GppNHp disruption assay; assay type: biochemical; conditions: 1 h incubation
T1 construct: Avi-KRAS G12D (1-169) GppNHp
In short: (§1)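 HTRF read-out (320 nm excitation, 615 nm emission) after two 1 h room-temperature incubations, first with protein mix, then detection reagents. Ten-point dilution series starting at 100 μM; results given as % activity relative to DMSO at 100%.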

GDP KRAS G12D = GDP KRAS G12D (Homo sapiens, UniProt P01116, G12D); test: SPR binding affinity, GDP KRAS G12D; conditions: GDP-bound KRAS G12D
GppNHp KRAS G12D = GppNHp KRAS G12D (Homo sapiens, UniProt P01116, G12D); test: SPR binding affinity, GppNHp KRAS G12D; conditions: GppNHp-bound KRAS G12D
[3] = target: T2, Avi-KRAS G12D/Q25A (1-169) GppNHp/3×FLAG-PI3KCA (157-299) (Homo sapiens, UniProt P01116, G12D/Q25A); test: HTRF PI3KCA-KRAS G12D/Q25A-GppNHp disruption assay; assay type: biochemical; conditions: 1 h incubation
T2 construct: Avi-KRAS G12D/Q25A (1-169) GppNHp
In short: as §1

Chain of GppNHp KRAS G12D (P01116 1-188 isoform P01116-2 G12D): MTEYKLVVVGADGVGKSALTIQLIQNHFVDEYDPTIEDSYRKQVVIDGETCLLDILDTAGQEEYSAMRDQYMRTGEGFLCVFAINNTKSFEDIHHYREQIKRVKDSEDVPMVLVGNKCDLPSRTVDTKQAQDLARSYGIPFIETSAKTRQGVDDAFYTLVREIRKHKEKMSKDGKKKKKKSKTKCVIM
Chain of GDP KRAS G12D (P01116 1-188 isoform P01116-2 G12D): as above
T2 sequence (P01116 1-169 isoform P01116-2 G12D/Q25A limits assumed): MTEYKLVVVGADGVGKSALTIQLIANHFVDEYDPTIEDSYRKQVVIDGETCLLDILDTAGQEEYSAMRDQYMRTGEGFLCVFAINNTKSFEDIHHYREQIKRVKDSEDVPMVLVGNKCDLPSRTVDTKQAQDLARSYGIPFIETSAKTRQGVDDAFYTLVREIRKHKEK
T1 sequence (P01116 1-169 isoform P01116-2 G12D limits assumed): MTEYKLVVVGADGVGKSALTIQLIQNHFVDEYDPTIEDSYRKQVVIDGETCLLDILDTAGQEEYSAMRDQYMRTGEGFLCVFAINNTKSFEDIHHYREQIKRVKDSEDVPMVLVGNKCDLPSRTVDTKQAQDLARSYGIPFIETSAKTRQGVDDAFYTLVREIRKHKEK

Row | IC50 [1] | IC50 [2] | Kd (GDP KRAS G12D) | Kd (GppNHp KRAS G12D) | IC50 [3] | Compound
1 | > 1 µM | ≤ 0.1 µM | ≤ 0.1 µM | ≤ 0.1 µM | 0.1 to 1 µM | Nc1nc2c(-c3c(C(F)(F)F)cc4c(N[C@@H]5CCNC5)nc(OC[C@@]56CCCN5C[C@H](F)C6)nc4c3F)ccc(F)c2s1 (atropisomer, axis not shown) [Compound 248]
2 | – | 1 to 10 µM | ≤ 0.1 µM | 1 to 10 µM | 10 to 30 µM | Nc1nc2c(-c3c(C(F)(F)F)cc4c(N[C@@H]5CCNC5)nc(OC[C@@]56CCCN5C[C@H](F)C6)nc4c3F)ccc(F)c2s1 (atropisomer, axis not shown) [Compound 249]
3 | – | 10 to 30 µM | 1 to 10 µM | 10 to 30 µM | 10 to 30 µM | Nc1nc2c(-c3c(Cl)cc4c(N5CCNCC5)ncnc4c3F)ccc(F)c2s1 [Compound 1, 4-(6-chloro-8-fluoro-4-(piperazin-1-yl)quinazolin-7-yl)-7-fluorobenzo[d]thiazol-2-amine]
4 | – | 10 to 30 µM | 1 to 10 µM | 10 to 30 µM | 10 to 30 µM | NCCNc1ncnc2c(F)c(-c3ccc(F)c4sc(N)nc34)c(Cl)cc12 [Compound 5, N^1-(7-(2-amino-7-fluorobenzo[d]thiazol-4-yl)-6-chloro-8-fluoroquinazolin-4-yl)ethane-1,2-diamine]
5 | – | 10 to 30 µM | 1 to 10 µM | 10 to 30 µM | 10 to 30 µM | N#CC[C@H]1CN(c2ncnc3c(F)c(-c4ccc(F)c5sc(N)nc45)c(Cl)cc23)CCN1C(=O)CN [Compound 29]
6 | – | 10 to 30 µM | 1 to 10 µM | 10 to 30 µM | 10 to 30 µM | CN(C)C1CN(c2nc(NCCN)c3cc(Cl)c(-c4ccc(F)c5sc(N)nc45)c(F)c3n2)C1 [Compound 46, N^1-(7-(2-amino-7-fluorobenzo[d]thiazol-4-yl)-6-chloro-2-(3-(dimethylamino)azetidin-1-yl)-8-fluoroquinazolin-4-yl)ethane-1,2-diamine]
7 | – | 10 to 30 µM | 1 to 10 µM | 10 to 30 µM | 10 to 30 µM | CN(C)C1CN(c2nc(N3CCNCC3)c3cc(Cl)c(-c4ccc(F)c5sc(N)nc45)c(F)c3n2)C1 [Compound 47]
8 | – | 1 to 10 µM | ≤ 0.1 µM | 1 to 10 µM | 1 to 10 µM | CN1CCC[C@H]1COc1nc(NCCN)c2cc(Cl)c(-c3ccc(F)c4sc(N)nc34)c(F)c2n1 [Compound 49]
9 | – | 1 to 10 µM | 0.1 to 1 µM | 1 to 10 µM | 1 to 10 µM | CN1CCC[C@H]1COc1nc(N2CCN(C(=O)CN)[C@@H](CC#N)C2)c2cc(Cl)c(-c3ccc(F)c4sc(N)nc34)c(F)c2n1 [Compound 54]
10 | – | 1 to 10 µM | ≤ 0.1 µM | 1 to 10 µM | 1 to 10 µM | CN1CCC[C@H]1COc1nc(NC2CNC2)c2cc(Cl)c(-c3ccc(F)c4sc(N)nc34)c(F)c2n1 [Compound 55, 4-(4-(azetidin-3-ylamino)-6-chloro-8-fluoro-2-(((S)-1-methylpyrrolidin-2-yl)methoxy)quinazolin-7-yl)-7-fluorobenzo[d]thiazol-2-amine]
11 | – | 10 to 30 µM | 0.1 to 1 µM | 10 to 30 µM | 10 to 30 µM | CN1CCC[C@H]1COc1nc(N2CCN[C@@H](CC#N)C2)c2cc(Cl)c(-c3ccc(F)c4sc(N)nc34)c(F)c2n1 [Compound 56]
12 | – | 10 to 30 µM | – | 1 to 10 µM | 10 to 30 µM | CN1CCC[C@H]1COc1nc(N2CCN(C(=O)CN)[C@@H](CC#N)C2)c2cc(Cl)c(-c3ccc(F)c4sc(N)nc34)c(O)c2n1 [Compound 59]
13 | – | 10 to 30 µM | – | 10 to 30 µM | 10 to 30 µM | CO[C@@H]1CN(C)C[C@H]1Oc1nc(NCCN)c2cc(Cl)c(-c3ccc(F)c4sc(N)nc34)c(F)c2n1 [Compound 60]
14 | – | 1 to 10 µM | – | 1 to 10 µM | 1 to 10 µM | CO[C@@H]1C[C@@H](COc2nc(NCCN)c3cc(Cl)c(-c4ccc(F)c5sc(N)nc45)c(F)c3n2)N(C)C1 [Compound 61]
15 | – | 10 to 30 µM | – | 10 to 30 µM | 10 to 30 µM | Cc1ccc2[nH]ncc2c1-c1c(Cl)cc2c(NCCN)nc(OC[C@@H]3CCCN3C)nc2c1F [Compound 62]
16 | – | 10 to 30 µM | – | 10 to 30 µM | 10 to 30 µM | CO[C@@H]1CN(C)C[C@H]1Oc1nc(N2CCNCC2)c2cc(Cl)c(-c3ccc(F)c4sc(N)nc34)c(F)c2n1 [Compound 63]
17 | – | 10 to 30 µM | – | 10 to 30 µM | 10 to 30 µM | CN1CCC[C@H]1COc1nc(NCCN)c2cc(Cl)c(-c3cccc4cc(O)ccc34)c(F)c2n1 [Compound 74]
18 | – | 1 to 10 µM | – | 0.1 to 1 µM | 1 to 10 µM | NCCNc1nc(OCC23CCCN2CCC3)nc2c(F)c(-c3ccc(F)c4sc(N)nc34)c(Cl)cc12 [Compound 77]
19 | – | 1 to 10 µM | – | 0.1 to 1 µM | 1 to 10 µM | Nc1nc2c(-c3c(Cl)cc4c(NC5CNC5)nc(OCC56CCCN5CCC6)nc4c3F)ccc(F)c2s1 [Compound 89]
20 | > 1 µM | 0.1 to 1 µM | ≤ 0.1 µM | ≤ 0.1 µM | 0.1 to 1 µM | Nc1nc2c(-c3c(C(F)(F)F)cc4c(NC5CNC5)nc(OCC56CCCN5CCC6)nc4c3F)ccc(F)c2s1 [Compound 120]
21 | – | 0.1 to 1 µM | ≤ 0.1 µM | 0.1 to 1 µM | 0.1 to 1 µM | CN(c1nc(OC[C@@]23CCCN2C[C@H](F)C3)nc2c(F)c(-c3ccc(F)c4sc(N)nc34)c(C(F)(F)F)cc12)C1C2C[C@H]1CN2 (some centres unmarked) [Compound 289]
22 | > 1 µM | 1 to 10 µM | – | – | 10 to 30 µM | Nc1nc2c(-c3cc4nc(OC[C@@]56CCCN5C[C@H](F)C6)nc(O[C@H]5CNC[C@@H]5F)c4cc3C(F)(F)F)ccc(F)c2s1 [Compound 374]
23 | ≤ 0.1 µM | 0.1 to 1 µM | – | – | 0.1 to 1 µM | N#Cc1c(N)sc2c(F)ccc(-c3c(C(F)(F)F)cc4c(N5CC[C@@H]6CNCC[C@@H]65)nc(OC[C@@]56CCCN5C[C@H](F)C6)nc4c3F)c12 [Compound 376]
24 | 0.1 to 1 µM | 0.1 to 1 µM | – | – | 0.1 to 1 µM | CN(c1nc(OC[C@@]23CCCN2C[C@H](F)C3)nc2c(F)c(-c3ccc(F)c4sc(N)c(C#N)c34)c(F)cc12)[C@@H]1CCNC1 [Compound 377]
25 | ≤ 0.1 µM | ≤ 0.1 µM | – | – | 0.1 to 1 µM | C[C@@H]1CN(c2nc(OC[C@@]34CCCN3C[C@H](F)C4)nc3c(F)c(-c4ccc(F)c5sc(N)c(C#N)c45)c(C(F)(F)F)cc23)[C@@H](C)CN1 [Compound 378]
26 | ≤ 0.1 µM | 0.1 to 1 µM | – | – | 0.1 to 1 µM | CN(c1nc(OC[C@@]23CCCN2C[C@H](F)C3)nc2c(F)c(-c3ccc(F)c4sc(N)c(C#N)c34)c(Cl)cc12)[C@@H]1CCNC1 [Compound 379]

Row | Compound | IC50 [1] | IC50 [2] | Kd (GDP KRAS G12D) | Kd (GppNHp KRAS G12D) | IC50 [3]
27 | Nc1nc2c(-c3c(C(F)(F)F)cc4c(N5CC6CCC(C5)N6)nc(OC[C@@]56CCCN5C[C@H](F)C6)nc4c3F)ccc(F)c2s1 (single isomer, unassigned) [Compound 245] | ≤ 0.1 µM | ≤ 0.1 µM | ≤ 0.1 µM | ≤ 0.1 µM | ≤ 0.1 µM
28 | Nc1nc2c(-c3c(C(F)(F)F)cc4c(N5CC6CCC(C5)N6)nc(OC[C@@]56CCCN5C[C@H](F)C6)nc4c3F)ccc(F)c2s1 (single isomer, unassigned) [Compound 246] | – | 1 to 10 µM | ≤ 0.1 µM | 1 to 10 µM | 1 to 10 µM
29 | Nc1nc2c(-c3c(Cl)cc4c(N5CC6CCC(C5)N6)nc(OCC56CCCN5CCC6)nc4c3F)ccc(F)c2s1 [Compound 157, 4-(4-(3,8-diazabicyclo[3.2.1]octan-3-yl)-6-chloro-8-fluoro-2-((tetrahydro-1H-pyrrolizin-7a(5H)-yl)methoxy)quinazolin-7-yl)-7-fluorobenzo[d]thiazol-2-amine] | 0.1 to 1 µM | 0.1 to 1 µM | ≤ 0.1 µM | ≤ 0.1 µM | 0.1 to 1 µM
30 | Nc1nc2c(-c3c(C(F)F)cc4c(N5C[C@H]6CC[C@@H](C5)N6)nc(OC[C@@]56CCCN5C[C@H](F)C6)nc4c3Cl)ccc(F)c2s1 [Compound 368, 4-(4-((1R,5S)-3,8-diazabicyclo[3.2.1]octan-3-yl)-8-chloro-6-(difluoromethyl)-2-(((2R,7aS)-2-fluorotetrahydro-1H-pyrrolizin-7a(5H)-yl)methoxy)quinazolin-7-yl)-7-fluorobenzo[d]thiazol-2-amine] | ≤ 0.1 µM | 0.1 to 1 µM | – | – | 0.1 to 1 µM
31 | Nc1nc2c(-c3c(C(F)F)cc4c(N5C[C@H]6CC[C@@H](C5)N6)nc(OC[C@@]56CCCN5C[C@H](F)C6)nc4c3F)ccc(F)c2s1 [Compound 370, 4-(4-((1R,5S)-3,8-diazabicyclo[3.2.1]octan-3-yl)-6-(difluoromethyl)-8-fluoro-2-(((2R,7aS)-2-fluorotetrahydro-1H-pyrrolizin-7a(5H)-yl)methoxy)quinazolin-7-yl)-7-fluorobenzo[d]thiazol-2-amine] | ≤ 0.1 µM | 0.1 to 1 µM | – | – | 0.1 to 1 µM
32 | N#Cc1c(-c2ccc(F)c3sc(N)c(C#N)c23)c(Cl)cc2c(N3CC4CCC(C3)N4)nc(OC[C@@]34CCCN3C[C@H](F)C4)nc12 [Compound 371] | ≤ 0.1 µM | 0.1 to 1 µM | – | – | 0.1 to 1 µM
33 | N#Cc1cc2c(N3CC4CCC(C3)N4)nc(OC[C@@]34CCCN3C[C@H](F)C4)nc2c(Cl)c1-c1ccc(F)c2sc(N)c(C#N)c12 [Compound 372] | 0.1 to 1 µM | 1 to 10 µM | – | – | 1 to 10 µM
